Like-named read-outs stand apart in the source and are kept apart here.
Tests used:
[1] = Clearance (Table V, Comments); format: in vitro ADME
[2] = test system: retinal ganglion cells and optic nerve axons; test: Optic nerve transection, 14 or 28 day treatment, evaluated 90 days after transection (Example 6, Table I); format: in vivo, rat; conditions: 90 days after ONT
From the text: All eyes and optic nerves stumps were removed.

[3] = test system: retinal ganglion cells, optic nerve axons and myelin; test: Retinal ischemia (FIG. 1, FIG. 2); format: in vivo, rat; conditions: 10 mg/kg s.c. 1 hour prior to ischemia and 10 mg/kg/day for next four days; 28 days after ischemia
From the text: Retinal ganglion cells were retrogradely labeled in adult rats by bilateral injection of fluorogold in their lateral geniculate nuclei. Labeled ganglion cells in the normal rat retina appear as white profiles against the dark background (FIG. 1A). Complete retinal ischemia was produced by infusing normal saline solution into the retinal vitreous cavity of each eye until the intraocular pressure exceeded arterial blood pressure. 28 days after the ischemic episode extensive degeneration of retinal ganglion cell was evidenced by massive reduction in the density of fluorogold labeled cells (FIG. 1B).

[4] = test system: aged C57BL/6N-Nia mice; test: Morris watermaze, spatial learning and memory in aged rodents (Example 19); format: in vivo, mouse; conditions: 10 mg/kg daily; retention testing after 3 weeks of dosing
From the text: The Morris watermaze is widely used for assessing spatial memory formation and retention in experimental animals. The test depends on the animal's ability to utilize spatial visual information in order to locate a submerged escape platform in a water tank. It is important that the tank itself be as devoid of specific visual features as possible-thus, it is always circular in shape, the sides are kept smooth and in uniform dull colors and the water is rendered opaque with nontoxic watercolor pigment or powdered milk. This is to ensure that the animal navigates only by the use of more distant visual cues, or by the use of intra-maze cues specifically provided by the experimenter. The tank is filled to a level which forces the animal to swim actively. Normal mice and rats react […] to the swimming part of the test and will climb onto, and remain on, an escape platform from which they are removed to a heated resting cage. If the platform is visible (i.e. above the surface), animals placed in the tank will quickly learn to home in on the platform and climb out onto it. […] Swim Distances (cm) were analyzed in a 7×5 ANOVA including Groups and Blocks (1-5) as factors in the analysis, treating Blocks as a repeated measure.

Row | SMILES | Clearance [1] | Distal optic nerve myelin basic protein Density: shrinkage of cross sectional area ([2]; GPI 1046 14 days, compared to sham control) | Distal optic nerve myelin basic protein Density: myelin loss ([2]; GPI 1046 14 days, cross sectional area multiplied by myelin density) | Distal optic nerve myelin basic protein Density: less shrinkage of cross sectional area ([2]; GPI 1046 28 days) | protection of retinal ganglion cells after retinal ischemia (fluorogold labeled cells) [3] | spatial memory performance (swim distance), retention testing, aged impaired mice vs vehicle [4] | Clearance ([1]; unit printed as μl/ml)
1 | CCC(C)(C)C(=O)C(=O)N1CCC[C@H]1C(=O)OCCCc1cccnc1 [GPI 1046] | 63.5 µL/min | did not protect against shrinkage of the distal stump | slightly increase the density of myelin | prevented cross sectional shrinkage | noticeable protection of a large proportion of the vulnerable ganglion cell population | significantly enhanced spatial memory performance | 
2 | CN(C)C(=O)N1CCC[C@H]1C(=O)SCCCc1ccccc1 [N] |  |  |  |  |  |  | 21.9

— patent US7265150B1, “Carboxylic acids and carboxylic acid isosteres of N-heterocyclic compounds for vision and memory disorders” (GPI NIL Holdings Inc., priority 1998, dated 2007)
